The structures appear in SMILES notation.

As usually defined, the Kd is the concentration at which binding is half-saturated.

For series [1], the target named is T1, KIX (Mus musculus, UniProt P45481).
T1 construct: The DNA fragment of KIX (residues 586–672 of mouse CBP); 6xHis-tag with thrombin cleavage site (N); made in house; host or cells: E. coli BL21(DE3)pLysS
The series can be described thus: KIX binding by isothermal titration calorimetry (ITC). Particulars: 30 °C. On the procedure: For the expression of MLL TAD, E. coli BL21(DE3) competent cells were transformed with the plasmid and cultivated at 37 °C in 2 × YT liquid medium supplemented with ampicillin. When an optical density at 600 nm (OD600) of the cell culture reached 0.7–0.8, 1 mM isopropyl β-D-1-thiogalactopyranoside was added to induce protein expression. After 4 h of cultivation, the cells were harvested by centrifugation. The E. coli cell pellet was suspended with buffer HP (50 mM sodium phosphate [pH 7.4], 300 mM NaCl, 10 mM imidazole, and 6 M guanidine hydrochloride). The sonicated lysate was centrifuged at 4 °C, and the supernatant was filtered using a membrane filter and applied to a gravity column (50 mL) containing 5 mL of nickel-nitrilotriacetic acid (Ni–NTA) resin (Qiagen, Hilden, Germany). The column was washed with buffer HP and buffer AP (50 mM sodium phosphate [pH 7.4], 300 mM NaCl, and 10 mM imidazole) to remove impurities. To elute His-tag–GB1–MLL TAD for ITC and SPR measurements, 40 mL of buffer EP (50 mM sodium phosphate [pH 7.4], 300 mM NaCl, and 250 mM imidazole) was added to the column. […] Thus, His-tag–GB1–MLL TAD was used in the ITC measurements, with the exception of the four mutants (I2849L, D2851L, K2855R, and T2857I). To obtain the MLL TAD peptide without His-tag–GB1 for CD measurements, we washed the column, to which the His-tag–GB1–MLL TAD was attached, with buffer TP (50 mM sodium phosphate [pH 7.4] and 300 mM NaCl), added 150 units of thrombin to the column for digestion of the His-tag–GB1, and eluted the MLL TAD peptide with buffer TP. After Ni–NTA column purification, anion exchange chromatography was performed to further purify the aforementioned four mutants without His-tag–GB1 using the AKTAprime plus chromatography system (Cytiva, Marlborough, MA, USA; 10 mM sodium phosphate [pH 6.0] and 0–1 M NaCl). Due to the fact that the CD spectra of the four mutants were unchanged before and after the anion exchange chromatography, we omitted this procedure for other mutants.
Expression and purification of the KIX protein was performed in the same way as MLL, except that E. coli BL21(DE3)pLysS competent cells and 2 × YT liquid medium with ampicillin and chloramphenicol were used. After Ni–NTA column purification, gel filtration chromatography was performed using a Superdex 200 pg column (Cytiva) and the ITC buffer (20 mM Tris–acetate [pH 7.0] and 50 mM NaCl).
ITC measurements were performed using MicroCal iTC200 (Malvern Panalytical Ltd., Malvern, United Kingdom) at 30 °C. Samples were sufficiently dialyzed with the ITC buffer before measurements. The 600 μM MLL solution was titrated into the cell containing 45 µM KIX. The data were analyzed using the Origin 7 software (OriginLab Corp., Northampton, MA, USA; https://www.originlab.com) to obtain the Kd (M), ΔH (kcal/mol), and stoichiometry of binding, N. The ΔG (kcal/mol) and ΔS (kcal/mol/K) were obtained as follows:2 ΔG=-RTln1/Kd 3 ΔS=ΔH-ΔG/T where R is the gas constant, and T is the temperature.
For orientation: Isothermal titration calorimetry measures the heat released or taken up as one component is titrated into another.

Series [2] is described as follows: Helix contents estimated from far-UV CD spectra. The format is physicochemical. The following applies: 30 μM peptide without His-tag–GB1, 30 °C, pH 7.0, CONTINLL with SDP48 reference set. The protocol: CD spectra were measured using a J-805 spectropolarimeter (JASCO, Tokyo, Japan) from 200 to 250 nm in a quartz cuvette with a 1-mm path length at 30 °C. Protein concentrations were 30 μM. The CD intensity was converted to MRE using the following equation:1 MRE(deg cm^2dmol^-1)=CD(mdeg)/N·c(M)·l(mm) where N is the number of residues, c is the protein concentration, and l is the path length.
The helix contents of the MLL TAD peptide were calculated from the far-UV CD spectra using the CONTINLL program[42] with the reference data set containing soluble and denatured proteins (SDP48) in the CDPro package.

For series [3], the target named is KIX. Particulars: previously reported value for binding between KIX and MLL TAD; cited from earlier work. An excerpt:
Previous studies have reported several inhibitors that bind the MLL site of KIX, including isoxazolidine derivatives, which are small molecule compounds that mimic the function of the TADs of transcriptional activators, and natural products such as sekikaic acid and lobaric acid[21],[22].

T1 sequence (P45481 586-672): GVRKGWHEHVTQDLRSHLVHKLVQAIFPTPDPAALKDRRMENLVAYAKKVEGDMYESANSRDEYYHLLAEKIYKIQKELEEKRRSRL

Consider `CC[C@H](C)[C@H](NC(=O)[C@H](CC(=O)O)NC(=O)[C@H](CO)NC(=O)[C@@H]1CCCN1C(=O)[C@H](CC(C)C)NC(=O)[C@@H](NC(=O)[C@H](CC(N)=O)NC(=O)CN)[C@@H](C)CC)C(=O)N[C@@H](CCSC)C(=O)N[C@@H](CC(=O)O)C(=O)N[C@@H](Cc1ccccc1)C(=O)N[C@H](C(=O)N[C@@H](CC(C)C)C(=O)N[C@@H](CCCCN)C(=O)N[C@@H](CC(N)=O)C(=O)N[C@H](C(=O)N1CCC[C@H]1C(=O)N[C@@H](CO)C(=O)N[C@@H](CCSC)C(=O)N[C@@H](CCC(N)=O)C(=O)N[C@@H](C)C(=O)N[C@@H](CC(C)C)C(=O)NCC(=O)N[C@@H](CCC(=O)O)C(=O)N[C@@H](CO)C(=O)N1CCC[C@H]1C(=O)N[C@@H](CCC(=O)O)C(=O)N[C@@H](CO)C(=O)N[C@@H](Cc1ccc(O)cc1)C(=O)O)[C@@H](C)O)C(C)C` [wild type, reference compound], for which the “N (stoichiometry of binding)” value at KIX [1] (pH 7.0, mean ± standard error of triplicate or more) is on record as 1.02 ± 0.01. The “− TΔS” value at KIX [1] (entropy term upon KIX binding, pH 7.0, ΔS=(ΔH-ΔG)/T, mean ± standard error of triplicate or more) was 5.2 ± 0.1 kcal/mol. Moreover, in series [2], the helix contents is ~ 5.7%. The Kd at KIX [3] is 2100 nM.

The values above are taken from publication PMC10113271, “Rational peptide design for inhibition of the KIX–MLL interaction” (Scientific Reports, 2023).
